Test results: US10993947B2, “Treatment of skin lesions” (PIQUR THERAPEUTICS AG, priority 2016, dated 2021)
Like-named read-outs stand apart in the source and are kept apart here.

Assays:
[1] = target: T1, N-terminally GST-tagged mTOR (Homo sapiens, UniProt P42345); experiment: In vitro mTOR binding assay (LanthaScreen TR-FRET)
T1 construct: truncated version: amino acids 1360-2549; purchased Life Technologies PR8683B
Method: A 10-point 4-fold serial dilution (highest concentration at 10 μmol/L and lowest concentration at 40 μmol/L) of each compound was tested for mTOR binding in duplicate in a 384-well plate. […] After 30 min incubation at RT, time-resolved FRET was measured with a Synergy 4 multi-mode microplate reader (Biotek Instruments) using the following settings: 100 microsecs delay before data collection, 200 microsecs time for data collection, 10 measurements per data point.
IC50 values of each compound were determined by plotting the emission ratio versus the compound concentrations (in logarithmic scale) and then by fitting a sigmoidal dose-response curve with variable slope to the data using GraphPad™ Prism.

[2] = tested on: pS6 S235/S236 in A2058 cells; experiment: In-cell Western blot, pS6 S235/S236; type: cell-based; conditions: Homo sapiens, 1 hour treatment
Method: (§1) Cells are fixed with 4% paraformaldehyde for 30 minutes at room temperature, washed 2 times with 1% BSA in PBS, permeabilized with 0.1% Triton X-100 in PBS/1% BSA for 30 minutes at room temperature and blocked with 5% goat serum in PBS/1% BSA/0.1% Triton X-100 for 30 minutes at room temperature. […] Cells are washed 3 times 5 minutes with PBS/1% BSA/0.1% triton and plate scanned with the Odyssey Infrared Scanning system using both 700 and 800 nm channels. […] To correct for background staining in the data analysis wells are treated only with secondary antibodies.
(§2) For data analysis the mean background signal from channel 700 nm and 800 nm are subtracted from each signal in channel 700 nm and 800 nm, respectively.
(§3) IC50 values of each compound are determined by plotting the normalized pPBK S473 and pS6 S235/S236 signals, respectively, versus the compound concentrations (in logarithmic scale) and then by fitting a sigmoidal dose-response curve with variable slope to the data using GraphPad™ Prism.

[3] = tested on: pPKB S473 in A2058 cells; experiment: In-cell Western blot, pPKB S473; type: cell-based; conditions: Homo sapiens, 1 hour treatment
Method: as §1, §2, §3

[4] = LanthaScreen kinase binding, Tracer 314, read-out: mTOR IC50 (binding)

T1 sequence (P42345 1360-2549): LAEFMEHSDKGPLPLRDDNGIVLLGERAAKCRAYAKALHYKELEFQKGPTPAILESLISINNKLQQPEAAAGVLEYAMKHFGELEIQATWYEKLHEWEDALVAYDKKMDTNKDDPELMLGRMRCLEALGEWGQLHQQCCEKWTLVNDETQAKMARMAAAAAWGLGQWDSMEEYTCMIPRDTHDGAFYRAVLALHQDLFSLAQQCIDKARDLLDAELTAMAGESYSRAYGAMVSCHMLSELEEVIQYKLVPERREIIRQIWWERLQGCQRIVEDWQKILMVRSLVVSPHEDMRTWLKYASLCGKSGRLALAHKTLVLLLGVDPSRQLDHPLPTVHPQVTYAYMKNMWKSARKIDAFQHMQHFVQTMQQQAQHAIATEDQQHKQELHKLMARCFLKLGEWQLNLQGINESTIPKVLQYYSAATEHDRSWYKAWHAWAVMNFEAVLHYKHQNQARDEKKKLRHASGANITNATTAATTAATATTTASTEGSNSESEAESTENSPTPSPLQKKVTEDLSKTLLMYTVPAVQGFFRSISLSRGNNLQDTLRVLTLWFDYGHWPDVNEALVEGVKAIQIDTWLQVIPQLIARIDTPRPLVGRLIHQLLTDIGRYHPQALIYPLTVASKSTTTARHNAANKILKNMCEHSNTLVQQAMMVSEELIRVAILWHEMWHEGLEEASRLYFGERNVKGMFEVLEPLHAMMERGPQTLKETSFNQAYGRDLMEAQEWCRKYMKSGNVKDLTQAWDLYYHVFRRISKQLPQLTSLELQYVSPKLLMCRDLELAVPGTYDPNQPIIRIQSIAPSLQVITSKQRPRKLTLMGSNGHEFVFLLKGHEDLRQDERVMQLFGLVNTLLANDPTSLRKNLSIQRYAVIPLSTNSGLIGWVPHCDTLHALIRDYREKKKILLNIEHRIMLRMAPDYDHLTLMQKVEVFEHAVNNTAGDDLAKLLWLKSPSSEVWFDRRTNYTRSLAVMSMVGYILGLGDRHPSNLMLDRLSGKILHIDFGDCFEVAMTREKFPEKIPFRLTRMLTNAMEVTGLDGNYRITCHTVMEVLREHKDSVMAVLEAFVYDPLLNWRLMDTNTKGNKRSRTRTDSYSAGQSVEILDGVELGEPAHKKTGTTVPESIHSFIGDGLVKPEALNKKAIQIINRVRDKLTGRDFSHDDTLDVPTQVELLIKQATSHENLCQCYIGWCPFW

## Nc1ncc(-c2nc(N3CCOCC3)nc(N3CCOCC3)n2)c(C(F)F)n1 [Compound 2]
[1]; [4]
  IC50: 59 nM

## Nc1cc(C(F)F)c(-c2nc(N3CCOCC3)nc(N3C4CCC3COC4)n2)cn1 [Compound 4, 5-(4-(3-oxa-8-azabicyclo[3.2.1]octan-8-yl)-6-morpholino-1,3,5-triazin-2-yl)-4-(difluoromethyl)pyridin-2-amine]
[2]; A2058, 1 h
  IC50: 135 nM
[3]; A2058, 1 h
  IC50: 178 nM

## Nc1ncc(-c2nc(N3CCOCC3)nc(N3C4CCC3COC4)n2)c(C(F)F)n1 [Compound 5, 5-(4-(3-oxa-8-azabicyclo[3.2.1]octan-8-yl)-6-morpholino-1,3,5-triazin-2-yl)-4-(difluoromethyl)pyrimidin-2-amine]
[2]; A2058, 1 h
  IC50: 135 nM
[3]; A2058, 1 h
  IC50: 85 nM

## C[C@H]1COCCN1c1nc(-c2cnc(N)nc2C(F)F)nc(N2CCOC[C@@H]2C)n1 [Compound 7]
[1]; [4]
  IC50: 71 nM

## C[C@H]1COCCN1c1nc(-c2cnc(N)cc2C(F)(F)F)nc(N2CCOCC2)n1 [Compound 8 *, 5-[4-[(3S)-3-methylmorpholin-4-yl]-6-morpholino-1,3,5-triazin-2-yl]-4-(trifluoromethyl)pyridin-2-amine]
[2]
  IC50: 90 nM
[3]
  IC50: 196 nM

## C[C@H]1COCCN1c1nc(-c2cnc(N)cc2C(F)F)nc(N2CCOCC2)n1 [Compound 8, (S)-4-(difluoromethyl)-5-(4-(3-methylmorpholino)-6-morpholino-1,3,5-triazin-2-yl)pyridin-2-amine]
[2]
  IC50: 68 nM
[3]
  IC50: 74 nM
[1]; [4]
  IC50: 10 nM

## C[C@H]1COCCN1c1nc(-c2cnc(N)nc2C(F)F)nc(N2CCOCC2)n1 [Compound 9]
[2]
  IC50: 72 nM
[3]
  IC50: 35 nM
[1]; [4]
  IC50: 24 nM

## C[C@H]1COCCN1c1nc(-c2cnc(N)cc2C(F)F)nc(N2C3CCC2COC3)n1 [Compound 10, 5-(4-(3-oxa-8-azabicyclo[3.2.1]octan-8-yl)-6-((S)-3-methylmorpholino)-1,3,5-triazin-2-yl)-4-(difluoromethyl)pyridin-2-amine]
[2]; A2058, 1 h
  IC50: 93 nM
[3]; A2058, 1 h
  IC50: 138 nM

## C[C@H]1COCCN1c1nc(-c2cnc(N)nc2C(F)F)nc(N2C3CCC2COC3)n1 [Compound 11, 5-(4-(3-oxa-8-azabicyclo[3.2.1]octan-8-yl)-6-((S)-3-methylmorpholino)-1,3,5-triazin-2-yl)-4-(difluoromethyl)pyrimidin-2-amine]
[2]; A2058, 1 h
  IC50: 96 nM
[3]; A2058, 1 h
  IC50: 61 nM

## C[C@H]1COCCN1c1nc(-c2cnc(N)cc2C(F)F)nc(N2CCNCC2)n1 [Compound 14, (S)-4-(difluoromethyl)-5-(4-(3-methylmorpholino)-6-(piperazin-1-yl)-1,3,5-triazin-2-yl)pyridin-2-amine]
[2]; A2058, 1 h
  IC50: 883 nM
[3]; A2058, 1 h
  IC50: 350 nM

## C[C@H]1COCCN1c1nc(-c2cnc(N)nc2C(F)F)nc(N2CCNCC2)n1 [Compound 15, (S)-4-(difluoromethyl)-5-(4-(3-methylmorpholino)-6-(piperazin-1-yl)-1,3,5-triazin-2-yl)pyrimidin-2-amine]
[2]; A2058, 1 h
  IC50: 286 nM
[3]; A2058, 1 h
  IC50: 49 nM

## Nc1ncc(-c2cc(N3CCOCC3)nc(N3CCOCC3)n2)c(C(F)F)n1 [Compound 17, 4′-(difluoromethyl)-2,6-dimorpholino-[4,5′-bipyrimidin]-2′-amine]
[2]
  IC50: 149 nM
[1]; [4]
  IC50: 155 nM

## Nc1ncc(-c2nc(N3CCOCC3)cc(N3CCOCC3)n2)c(C(F)F)n1 [Compound 19, 4′-(difluoromethyl)-4,6-dimorpholino-[2,5′-bipyrimidin]-2′-amine]
[1]; [4]
  IC50: 158 nM

## C[C@H]1COCCN1c1cc(-c2cnc(N)nc2C(F)F)nc(N2CCOCC2)n1 [Compound 28, (S)-4′-(difluoromethyl)-6-(3-methylmorpholino)-2-morpholino-[4,5′-bipyrimidin]-2′-amine]
[1]; [4]
  IC50: 23 nM

## Nc1cc(C(F)F)c(-c2nc(N3C4COCC3COC4)nc(N3C4COCC3COC4)n2)cn1 [Compound 37, 5-[4,6-bis(3,7-dioxa-9-azabicyclo[3.3.1]nonan-9-yl)-1,3,5-triazin-2-yl]-4-(difluoromethyl)pyridin-2-amine]
[1]
  IC50: 49 nM

## Nc1cc(C(F)F)c(-c2nc(N3C4CCC3COC4)nc(N3C4COCC3COC4)n2)cn1 [Compound 38, 4-(difluoromethyl)-5-[4-(3,7-dioxa-9-azabicyclo[3.3.1]nonan-9-yl)-6-(3-oxa-8-azabicyclo[3.2.1]octan-8-yl)-1,3,5-triazin-2-yl]pyridin-2-amine]
[2]; A2058, 1 h
  IC50: 79 nM
[3]; A2058, 1 h
  IC50: 219 nM

## C[C@@H]1COCCN1c1nc(-c2cnc(N)cc2C(F)F)nc(N2C3COCC2C3)n1 [Compound 50, 4-(difluoromethyl)-5-[4-[(3R)-3-methylmorpholin-4-yl]-6-(3-oxa-6-azabicyclo[3.1.1]heptan-6-yl)-1,3,5-triazin-2-yl]pyridin-2-amine]
[2]; A2058, 1 h
  IC50: 407 nM
[3]; A2058, 1 h
  IC50: 1560 nM

## C[C@@H]1COCCN1c1nc(-c2cnc(N)cc2C(F)F)nc(N2CC3CC(C2)O3)n1 [Compound 51, 4-(difluoromethyl)-5-[4-[(3R)-3-methylmorpholin-4-yl]-6-(6-oxa-3-azabicyclo[3.1.1]heptan-3-yl)-1,3,5-triazin-2-yl]pyridin-2-amine]
[2]; A2058, 1 h
  IC50: 352 nM
[3]; A2058, 1 h
  IC50: 875 nM

## C[C@@H]1COCCN1c1nc(-c2cnc(N)cc2C(F)F)nc(N2C[C@H]3C[C@@H]2CO3)n1 [Compound 52, 4-(difluoromethyl)-5-[4-[(3R)-3-methylmorpholin-4-yl]-6-[(1R,4R)-2-oxa-5-azabicyclo[2.2.1]heptan-5-yl]-1,3,5-triazin-2-yl]pyridin-2-amine]
[2]; A2058, 1 h
  IC50: 332 nM
[3]; A2058, 1 h
  IC50: 1050 nM

## C[C@@H]1COCCN1c1nc(-c2cnc(N)cc2C(F)F)nc(N2C[C@@H]3C[C@H]2CO3)n1 [Compound 53, 4-(difluoromethyl)-5-[4-[(3R)-3-methylmorpholin-4-yl]-6-[(1S,4S)-2-oxa-5-azabicyclo[2.2.1]heptan-5-yl]-1,3,5-triazin-2-yl]pyridin-2-amine]
[2]; A2058, 1 h
  IC50: 612 nM
[3]; A2058, 1 h
  IC50: 1320 nM

## CC[C@@H]1COCCN1c1nc(-c2cnc(N)cc2C(F)F)nc(N2CCOC[C@H]2CC)n1 [Compound 54, 5-[4,6-bis[(3R)-3-ethylmorpholin-4-yl]-1,3,5-triazin-2-yl]-4-(difluoromethyl)pyridin-2-amine]
[2]; A2058, 1 h
  IC50: 209 nM
[3]; A2058, 1 h
  IC50: 354 nM

## Nc1cc(C(F)F)c(-c2nc(N3CCOCC34CCC4)nc(N3CCOCC34CCC4)n2)cn1 [Compound 55, 5-[4,6-bis(8-oxa-5-azaspiro[3.5]nonan-5-yl)-1,3,5-triazin-2-yl]-4-(difluoromethyl)pyridin-2-amine]
[2]; A2058, 1 h
  IC50: 526 nM
[3]; A2058, 1 h
  IC50: 942 nM

## CC(C)[C@@H]1COCCN1c1nc(-c2cnc(N)cc2C(F)F)nc(N2CCOC[C@H]2C(C)C)n1 [Compound 56, 5-[4,6-bis[(3R)-3-isopropylmorpholin-4-yl]-1,3,5-triazin-2-yl]-4-(difluoromethyl)pyridin-2-amine]
[2]; A2058, 1 h
  IC50: > 10000 nM
[3]; A2058, 1 h
  IC50: > 10000 nM

## COC[C@@H]1COCCN1c1nc(-c2cnc(N)cc2C(F)F)nc(N2CCOCC2(C)C)n1 [Compound 67, 4-(difluoromethyl)-5-[4-(3,3-dimethylmorpholin-4-yl)-6-[(3R)-3-(methoxymethyl)morpholin-4-yl]-1,3,5-triazin-2-yl]pyridin-2-amine]
[2]; A2058, 1 h
  IC50: 395 nM
[3]; A2058, 1 h
  IC50: 787 nM

## CC1(C)COCCN1c1nc(-c2cnc(N)cc2C(F)F)nc(N2CCOC[C@H]2CO)n1 [Compound 68, [(3R)-4-[4-[6-amino-4-(difluoromethyl)-3-pyridyl]-6-(3,3-dimethylmorpholin-4-yl)-1,3,5-triazin-2-yl]morpholin-3-yl]methanol]
[2]; A2058, 1 h
  IC50: 415 nM
[3]; A2058, 1 h
  IC50: 682 nM

## CC1(C)COCCN1c1nc(-c2cnc(N)cc2C(F)F)nc(N2CCN(C3CC3)CC2)n1 [Compound 70, 5-[4-(4-cyclopropylpiperazin-1-yl)-6-(3,3-dimethylmorpholin-4-yl)-1,3,5-triazin-2-yl]-4-(difluoromethyl)pyridin-2-amine]
[2]; A2058, 1 h
  IC50: 906 nM
[3]; A2058, 1 h
  IC50: 914 nM

## COCCN1CCN(c2nc(-c3cnc(N)cc3C(F)F)nc(N3CCOCC3(C)C)n2)CC1 [Compound 71, 4-(difluoromethyl)-5-[4-(3,3-dimethylmorpholin-4-yl)-6-[4-(2-methoxyethyl)piperazin-1-yl]-1,3,5-triazin-2-yl]pyridin-2-amine]
[2]; A2058, 1 h
  IC50: 3140 nM
[3]; A2058, 1 h
  IC50: 2340 nM

## C[C@@H]1COCCN1c1nc(-c2cnc(N)cc2C(F)F)nc(N2CCOC[C@H]2CO)n1 [Compound 77, [(3R)-4-[4-[6-amino-4-(difluoromethyl)-3-pyridyl]-6-[(3R)-3-methylmorpholin-4-yl]-1,3,5-triazin-2-yl]morpholin-3-yl]methanol]
[3]; A2058, 1 h
  IC50: 476 nM

## Nc1cc(C(F)F)c(-c2nc(N3CCOCC3)nc(N3C4CCCC3COC4)n2)cn1 [Compound 80, 4-(difluoromethyl)-5-[4-morpholino-6-(3-oxa-9-azabicyclo[3.3.1]nonan-9-yl)-1,3,5-triazin-2-yl]pyridin-2-amine]
[2]; A2058, 1 h
  IC50: 117 nM
[3]; A2058, 1 h
  IC50: 94 nM

## Nc1cc(C(F)F)c(-c2nc(N3CCOCC3)nc(N3C4COCC3COC4)n2)cn1 [Compound 84, 4-(difluoromethyl)-5-[4-(3,7-dioxa-9-azabicyclo[3.3.1]nonan-9-yl)-6-morpholino-1,3,5-triazin-2-yl]pyridin-2-amine]
[2]; A2058, 1 h
  IC50: 146 nM
[3]; A2058, 1 h
  IC50: 116 nM

## CC[C@H]1COCCN1c1nc(-c2cnc(N)cc2C(F)F)nc(N2CCOC[C@H]2C)n1 [Compound 85, 4-(difluoromethyl)-5-[4-[(3S)-3-ethylmorpholin-4-yl]-6-[(3R)-3-methylmorpholin-4-yl]-1,3,5-triazin-2-yl]pyridin-2-amine]
[2]; A2058, 1 h
  IC50: 241 nM
[3]; A2058, 1 h
  IC50: 249 nM

## CC[C@@H]1COCCN1c1nc(-c2cnc(N)cc2C(F)F)nc(N2CCOC[C@H]2C)n1 [Compound 86, 4-(difluoromethyl)-5-[4-[(3R)-3-ethylmorpholin-4-yl]-6-[(3R)-3-methylmorpholin-4-yl]-1,3,5-triazin-2-yl]pyridin-2-amine]
[2]; A2058, 1 h
  IC50: 236 nM
[3]; A2058, 1 h
  IC50: 231 nM

## Nc1cc(C(F)(F)F)c(-c2cc(N3CCOCC3)nc(N3CCOCC3)n2)cn1 [reference compound]
[2]; A2058, 1 h
  IC50: 277 nM
[3]; A2058, 1 h
  IC50: 263 nM
